In the supplement of paper PMC11208160:

assay: recombinant UMI read abundance after kanamycin selection (control-corrected) (log10(CPM+1)); higher = more efficient recombination; extreme values may be limits of the assay; sequences stand for … in AGTGCAGAGAAAATCGGCCAGTTTTCTCTGCCTGCAGTCCGCATGCCGTGGGACCCCTTGGGTTCTAACCTGTTGCCTAGATTTATGCAGCGGACTGCCTTTCTCCCAAAGTGATAAACCGG…AGGTTGGTTTCACT; site = the 11-nt donor
Description: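 Pooled E. coli donor-specificity screen for the IS621 bridge recombinase. Each library member carries a reprogrammed 11-nt donor and a full-length LE bridge RNA expressed in cis from the natural promoter, with a paired donor-binding loop (8-nt LDG + 4-nt RDG) and a target-binding loop fixed to T5. It is co-electroporated with a T5 target plasmid; recombinase is induced with 0.07 mM IPTG and recombinants are selected on kanamycin. UMIs are counted as CPM, averaged over two biological replicates and corrected by the unselected control. Molecule = full bridge RNA written as DNA, built from the T5 scaffold: LDG = donor specificity nt 1-8, RDG = reverse complement of nt 8-11.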
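Also: IS621 bridge recombinase in Escherichia coli cells against a fixed T5 target plasmid.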

Row | Sequence | recombinant UMI read abundance (log10)
1 | AACCGTCCATGGACCGGTTTTCCCGGTAATCCGTATTTGAT (site AACCGACCTAT) | 0
2 | AACCGTCCATGGACCGGTTTTCCCGGTAATCCGTATTTGAT (site AACCGCCCTAT) | 0.00356
3 | AACCGTCCATGGACCGGTTTTCCCGGTAATCCGTATTTGAT (site AACCGGCCTAT) | 0.00769
4 | AACCGTCCATGGACCGGTTTTCCCGGTAATCCGTATTTGAT (site AACCGTACTAT) | 0.0096
5 | AACCGTCCATGGACCGGTTTTCCCGGTAATCCGTATTTGAT (site AACCGTCCTAA) | 0.0165
6 | AACCGTCCATGGACCGGTTTTCCCGGTAATCCGTATTTGAT (site AACCGTCCTAC) | 0.0101
7 | AACCGTCCATGGACCGGTTTTCCCGGTAATCCGTATTTGAT (site AACCGTCCTAG) | 0
8 | AACCGTCCATGGACCGGTTTTCCCGGTAATCCGTATTTGAT (site AACCGTCCTAT) | 0.252
9 | AACCGTCCATGGACCGGTTTTCCCGGTAATCCGTATTTGAT (site AACCGTCCTCT) | 0.00582
10 | AACCGTCCATGGACCGGTTTTCCCGGTAATCCGTATTTGAT (site AACCGTCCTGT) | 0
11 | AACCGTCCATGGACCGGTTTTCCCGGTAATCCGTATTTGAT (site AACCGTCCTTT) | 0.0201
12 | AACCGTCCATGGACCGGTTTTCCCGGTAATCCGTATTTGAT (site AACCGTGCTAT) | 0.0154
13 | AACCGTCCATGGACCGGTTTTCCCGGTAATCCGTATTTGAT (site AACCGTTCTAT) | 0.00303
14 | AACCGTCCATGGACCGGTTTTCCCGGTAATCCGTATTTGAT (site AACCTTCCTAT) | 0.0119
15 | AACCGTCCATGGACCGGTTTTCCCGGTAATCCGTATTTGAT (site AACGGTCCTAT) | 0.00654
16 | AACCGTCCATGGACCGGTTTTCCCGGTAATCCGTATTTGAT (site AACTGTCCTAT) | 0.00892
17 | AACCGTCCATGGACCGGTTTTCCCGGTAATCCGTATTTGAT (site AAGCGTCCTAT) | 0
18 | AACCGTCCATGGACCGGTTTTCCCGGTAATCCGTATTTGAT (site AATCGTCCTAT) | 0.0138
19 | AACCGTCCATGGACCGGTTTTCCCGGTAATCCGTATTTGAT (site ACCCGTCCTAT) | 0

Row | Sequence | recombinant UMI read abundance (log10)
20 | AACCGTCCATGGACCGGTTTTCCCGGTAATCCGTATTTGAT (site AGCCGTCCTAT) | 0.0654
21 | AACCGTCCATGGACCGGTTTTCCCGGTAATCCGTATTTGAT (site ATCCGTCCTAT) | 0.00558
22 | AACCGTCCATGGACCGGTTTTCCCGGTAATCCGTATTTGAT (site CACCGTCCTAT) | 0.00991
23 | AACCGTCCATGGACCGGTTTTCCCGGTAATCCGTATTTGAT (site GACCGTCCTAT) | 0.00938
24 | AACCGTCCATGGACCGGTTTTCCCGGTAATCCGTATTTGAT (site TACCGTCCTAT) | 0.0405
25 | AACCGTGCATGGACCGGTTTTCCCGGTAATCCGTATTTGAT (site AACCGTACTAT) | 0.902
26 | AACCGTGCATGGACCGGTTTTCCCGGTAATCCGTATTTGAT (site AACCGTCCTAT) | 0.0261
27 | AACCGTGCATGGACCGGTTTTCCCGGTAATCCGTATTTGAT (site AACCGTGCTAT) | 1.37
28 | AACCGTGCATGGACCGGTTTTCCCGGTAATCCGTATTTGAT (site AACCGTTCTAT) | 0
29 | AACCTAGCATGGACCGGTTTTCCCGGTAATCCGTATTTGTT (site AACCTAGCTAA) | 0.0287
30 | AACCTAGCATGGACCGGTTTTCCCGGTAATCCGTATTTGTT (site ACCCTAGCTAA) | 0.542
31 | AACCTAGCATGGACCGGTTTTCCCGGTAATCCGTATTTGTT (site AGCCTAGCTAA) | 0.024
32 | AACCTAGCATGGACCGGTTTTCCCGGTAATCCGTATTTGTT (site ATCCTAGCTAA) | 0.0182
33 | AACCTCCCATGGACCGGTTTTCCCGGTAATCCGTATTTGGC (site AACCTCCCTGC) | 0
34 | AACCTTCCATGGACCGGTTTTCCCGGTAATCCGTATTTGCC (site AACCTTCCTGG) | 0
35 | AACGAAACATGGACCGGTTTTCCCGGTAATCCGTATTTGCC (site AACGAAACTGG) | 2.4
36 | AACGGGGCATGGACCGGTTTTCCCGGTAATCCGTATTTGCG (site AACGGGGCTCG) | 1.19
37 | AACGGTACATGGACCGGTTTTCCCGGTAATCCGTATTTGGG (site AACGGTACTCC) | 0.0069
38 | AACGTGTCATGGACCGGTTTTCCCGGTAATCCGTATTTGAC (site AAAGTGTCTGT) | 0

Row | Sequence | recombinant UMI read abundance (log10)
39 | AACGTGTCATGGACCGGTTTTCCCGGTAATCCGTATTTGAC (site AACGTGTCTGT) | 0
40 | AACGTGTCATGGACCGGTTTTCCCGGTAATCCGTATTTGAC (site AAGGTGTCTGT) | 0
41 | AACGTGTCATGGACCGGTTTTCCCGGTAATCCGTATTTGAC (site AATGTGTCTGT) | 0
42 | AACTCAGCATGGACCGGTTTTCCCGGTAATCCGTATTTGTA (site AACTCAGCTTA) | 1.62
43 | AACTCCGCATGGACCGGTTTTCCCGGTAATCCGTATTTGAC (site AACTCCGCTGT) | 1.92
44 | AACTCCTCATGGACCGGTTTTCCCGGTAATCCGTATTTGCC (site AACTCCTCTGG) | 1.8
45 | AACTCCTCATGGACCGGTTTTCCCGGTAATCCGTATTTGCC (site CACTCCTCTGG) | 2.43
46 | AACTCCTCATGGACCGGTTTTCCCGGTAATCCGTATTTGCC (site GACTCCTCTGG) | 1.42
47 | AACTCCTCATGGACCGGTTTTCCCGGTAATCCGTATTTGCC (site TACTCCTCTGG) | 2.61
48 | AACTCTACATGGACCGGTTTTCCCGGTAATCCGTATTTGTG (site AACTCTACTCA) | 0.146
49 | AACTGCACATGGACCGGTTTTCCCGGTAATCCGTATTTGCT (site AACTGCACTAG) | 1.96
50 | AACTTGCCATGGACCGGTTTTCCCGGTAATCCGTATTTGGC (site AACTTGCCTGC) | 0
51 | AACTTGGCATGGACCGGTTTTCCCGGTAATCCGTATTTGGA (site AACTTGGCTTC) | 0.368
52 | AACTTGGCATGGACCGGTTTTCCCGGTAATCCGTATTTGGA (site CACTTGGCTTC) | 0.467
53 | AACTTGGCATGGACCGGTTTTCCCGGTAATCCGTATTTGGA (site GACTTGGCTTC) | 0.439
54 | AACTTGGCATGGACCGGTTTTCCCGGTAATCCGTATTTGGA (site TACTTGGCTTC) | 0.393
55 | AAGAACGCATGGACCGGTTTTCCCGGTAATCCGTATTTGGG (site AAGAACGCTCC) | 0.564
56 | AAGAACGCATGGACCGGTTTTCCCGGTAATCCGTATTTGGG (site AAGCACGCTCC) | 0.0226
57 | AAGAACGCATGGACCGGTTTTCCCGGTAATCCGTATTTGGG (site AAGGACGCTCC) | 0.0122
